Reference: patent publication US11498899B2, “Nitrone herbicides” (FMC Corporation, priority 2016, dated 2022)

Columns and labels:
[1] = test system: barnyardgrass (Echinochloa crus-galli); assay: Test A preemergence, visual injury rating 0-100 (0 no effect, 100 complete control); type: in vivo
kochia (Kochia scoparia) [2] = assay: Test A preemergence, visual injury rating 0-100; type: in vivo
[3] = test system: ryegrass, Italian (Italian ryegrass, Lolium multiflorum); assay: Test A preemergence, visual injury rating 0-100; type: in vivo
[4] = test system: foxtail, giant (giant foxtail, Setaria faberii); assay: Test A preemergence, visual injury rating 0-100; type: in vivo
[5] = test system: pigweed (Amaranthus retroflexus); assay: Test A preemergence, visual injury rating 0-100; type: in vivo
[6] = test system: ragweed (common ragweed, Ambrosia elatior); assay: Test A preemergence, visual injury rating 0-100; type: in vivo
kochia (Kochia scoparia) [7] = assay: Test A postemergence, visual injury rating 0-100; type: in vivo; details: 0 to 100 scale
Text: (§1) Seeds of plant species selected from barnyardgrass (Echinochloa crus-galli), kochia (Kochia scoparia), ragweed (common ragweed, Ambrosia elatior), ryegrass, Italian (Italian ryegrass, Lolium multiflorum), foxtail, giant (giant foxtail, Setaria faberii), foxtail, green (green foxtail, Setaria viridis), and pigweed (Amaranthus retroflexus) were planted into a blend of loam soil and sand and treated preemergence with a directed soil spray using test chemicals formulated in a non-phytotoxic solvent mixture which included a surfactant.
(§2) At the same time, plants selected from these weed species and also wheat (Triticum aestivum), corn (Zea mays), blackgrass (Alopecurus myosuroides), and galium (catchweed bedstraw, Galium aparine) were planted in pots containing the same blend of loam soil and sand and treated with postemergence applications of test chemicals formulated in the same manner. Plants ranged in height from 2 to 10 cm and were in the one- to two-leaf stage for the postemergence treatment. Treated plants and untreated controls were maintained in a greenhouse for approximately 10 days, after which time all treated plants were compared to untreated controls and visually evaluated for injury. […] A dash (-) response means no test result.

[8] = test system: ryegrass, Italian (Italian ryegrass, Lolium multiflorum); assay: Test A postemergence, visual injury rating 0-100; type: in vivo; details: 0 to 100 scale
Text: as §1, §2

[9] = test system: foxtail, giant (giant foxtail, Setaria faberii); assay: Test A postemergence, visual injury rating 0-100; type: in vivo; details: 0 to 100 scale
Text: as §1, §2

[10] = test system: pigweed (Amaranthus retroflexus); assay: Test A postemergence, visual injury rating 0-100; type: in vivo; details: 0 to 100 scale
Text: as §1, §2

[11] = test system: barnyardgrass (Echinochloa crus-galli); assay: Test A postemergence, visual injury rating 0-100; type: in vivo; details: 0 to 100 scale
Text: as §1, §2

[12] = test system: ragweed (common ragweed, Ambrosia elatior); assay: Test A postemergence, visual injury rating 0-100; type: in vivo; details: 0 to 100 scale
Text: as §1, §2

[13] = test system: galium (catchweed bedstraw, Galium aparine); assay: Test A postemergence, visual injury rating 0-100; type: in vivo; details: 0 to 100 scale
Text: as §1, §2

[14] = test system: blackgrass (Alopecurus myosuroides); assay: Test A postemergence, visual injury rating 0-100; type: in vivo; details: 0 to 100 scale
Text: as §1, §2

[15] = test system: wheat (Triticum aestivum); assay: Test A postemergence, visual injury rating 0-100; type: in vivo; details: 0 to 100 scale
Text: as §1, §2

corn (Zea mays) = assay: Test A postemergence, visual injury rating 0-100; type: in vivo; details: 0 to 100 scale
Text: as §1, §2

rice (Oryza sativa) = assay: Test B flooded paddy test, visual rating 0-100 (0 no effect, 100 complete control); details: Flood, 250 g ai/ha, applied to paddy water, rated after 13 to 15 days
[16] = test system: ducksalad (Heteranthera limosa); assay: Test B flooded paddy test, visual rating 0-100; details: Flood, 250 g ai/ha, applied to paddy water, rated after 13 to 15 days
[17] = test system: barnyardgrass (Echinochloa crus-galli); assay: Test B flooded paddy test, visual rating 0-100; details: Flood, 250 g ai/ha, applied to paddy water, rated after 13 to 15 days

Structure (SMILES)	Barnyardgrass plant response rating (0 to 100 scale) ([1]; 125 g ai/ha)	Kochia plant response rating (0 to 100 scale) (kochia (Kochia scoparia) [2]; 125 g ai/ha)	Foxtail, Giant plant response rating (0 to 100 scale) ([4]; 125 g ai/ha)	Pigweed plant response rating (0 to 100 scale) ([5]; 125 g ai/ha)	Ragweed plant response rating (0 to 100 scale) ([6]; 125 g ai/ha)	Kochia plant response rating (kochia (Kochia scoparia) [7]; 125 g ai/ha)	Kochia plant response rating (kochia (Kochia scoparia) [7]; 500 g ai/ha)	Ryegrass, Italian plant response rating ([8]; 125 g ai/ha)	Ryegrass, Italian plant response rating ([8]; 500 g ai/ha)	Foxtail, Giant plant response rating ([9]; 125 g ai/ha)	Foxtail, Giant plant response rating ([9]; 500 g ai/ha)	Pigweed plant response rating ([10]; 125 g ai/ha)	Pigweed plant response rating ([10]; 500 g ai/ha)	Barnyardgrass plant response rating ([11]; 125 g ai/ha)	Barnyardgrass plant response rating ([11]; 500 g ai/ha)	Ragweed plant response rating ([12]; 125 g ai/ha)	Ragweed plant response rating ([12]; 500 g ai/ha)	Galium plant response rating ([13]; 125 g ai/ha)	Galium plant response rating ([13]; 500 g ai/ha)	Blackgrass plant response rating ([14]; 125 g ai/ha)	also measured
CC1=[N+]([O-])C(C(=O)Nc2cccc(F)c2F)C(c2cccc(Cl)n2)C1 (centres unmarked) [Compound 89]	0	0	0	0	0	0	0	0	0	0	0	0	0	20	30	0	0	0	0	0	Barnyardgrass plant response rating (0 to 100 scale) ([1]; 500 g ai/ha): 40; Kochia plant response rating (0 to 100 scale) (kochia (Kochia scoparia) [2]; 500 g ai/ha): 0; Ryegrass, Italian plant response rating (0 to 100 scale) ([3]; 125 g ai/ha): 0; Ryegrass, Italian plant response rating (0 to 100 scale) ([3]; 500 g ai/ha): 0; Foxtail, Giant plant response rating (0 to 100 scale) ([4]; 500 g ai/ha): 30; Pigweed plant response rating (0 to 100 scale) ([5]; 500 g ai/ha): 0; Ragweed plant response rating (0 to 100 scale) ([6]; 500 g ai/ha): 0; Blackgrass plant response rating ([14]; 500 g ai/ha): 0; Wheat plant response rating ([15]; 125 g ai/ha): 0; Wheat plant response rating ([15]; 500 g ai/ha): 0; Corn plant response rating (corn (Zea mays); 125 g ai/ha): 0; Corn plant response rating (corn (Zea mays); 500 g ai/ha): 0; Rice plant response rating (0 to 100 scale) (rice (Oryza sativa)): 0; Ducksalad plant response rating (0 to 100 scale) [16]: 30; Barnyardgrass plant response rating (0 to 100 scale) [17]: 0
CC1=[N+]([O-])C(C(=O)Nc2cccc(F)c2F)C(c2ccc(Cl)c(F)c2)C1 (racemic) [Compound 107]	90	0	90	0	0	20	20	10	70	60	90	0	30	70	90	30	60	70	70	70	Barnyardgrass plant response rating (0 to 100 scale) ([1]; 500 g ai/ha): 90; Kochia plant response rating (0 to 100 scale) (kochia (Kochia scoparia) [2]; 500 g ai/ha): 90; Ryegrass, Italian plant response rating (0 to 100 scale) ([3]; 500 g ai/ha): 80; Foxtail, Giant plant response rating (0 to 100 scale) ([4]; 500 g ai/ha): 90; Pigweed plant response rating (0 to 100 scale) ([5]; 500 g ai/ha): 80; Ragweed plant response rating (0 to 100 scale) ([6]; 500 g ai/ha): 50; Blackgrass plant response rating ([14]; 500 g ai/ha): 70; Wheat plant response rating ([15]; 125 g ai/ha): 10; Wheat plant response rating ([15]; 500 g ai/ha): 60; Corn plant response rating (corn (Zea mays); 125 g ai/ha): 30; Corn plant response rating (corn (Zea mays); 500 g ai/ha): 80; Rice plant response rating (0 to 100 scale) (rice (Oryza sativa)): 0; Ducksalad plant response rating (0 to 100 scale) [16]: 70; Barnyardgrass plant response rating (0 to 100 scale) [17]: 40
CC1=[N+]([O-])C(C(=O)Nc2cccc(F)c2F)C(c2cccc(F)c2)C1 (racemic) [Compound 8]	90	0	90	20	0	0	40	0	50	90	90	0	20	50	90	0	0	20	60	0	Barnyardgrass plant response rating ([1]; 500 g ai/ha, 0 to 100 scale): 90; Kochia plant response rating (kochia (Kochia scoparia) [2]; 500 g ai/ha, 0 to 100 scale): 50; Ryegrass, Italian plant response rating (0 to 100 scale) ([3]; 125 g ai/ha): 0; Ryegrass, Italian plant response rating ([3]; 500 g ai/ha, 0 to 100 scale): 40; Foxtail, Giant plant response rating ([4]; 500 g ai/ha, 0 to 100 scale): 90; Pigweed plant response rating ([5]; 500 g ai/ha, 0 to 100 scale): 40; Ragweed plant response rating ([6]; 500 g ai/ha, 0 to 100 scale): 80; Blackgrass plant response rating ([14]; 500 g ai/ha): 30; Wheat plant response rating ([15]; 125 g ai/ha): 0; Wheat plant response rating ([15]; 500 g ai/ha): 50; Corn plant response rating (corn (Zea mays); 125 g ai/ha): 0; Corn plant response rating (corn (Zea mays); 500 g ai/ha): 0; Rice plant response rating (0 to 100 scale) (rice (Oryza sativa)): 0; Ducksalad plant response rating (0 to 100 scale) [16]: 100; Barnyardgrass plant response rating (0 to 100 scale) [17]: 85
